Reference: patent US20170224654A1, “PHARMACEUTICAL COMPOSITIONS AND METHODS FOR COUNTERING CHEMOTHERAPY INDUCED CARDIOTOXICITY” (Stem Cell Theranostics, Inc., priority 2016, published 2017)
“Also recorded” adds a separate entry of the source.

Assays:
[1] = biological target: T1, TOPOIIβ (Homo sapiens, UniProt Q02880); test: kDNA decatenation assay; type: biochemical; conditions: for TOPOIIβ enzymatic inhibition (in words): DHM: even at >200 μM
T1 construct: purchased Inspiralis

[2] = tested on: Human iPSC-derived cardiomyocytes; test: Cytotoxicity of MYR analogs to cardiomyocytes; conditions: for Toxicity: 100 μM; for cytotoxicity / toxic effects to cardiomyocytes (in words): at or below 100 μM as stated
[3] = biological target: T2, TOPOIIα (Homo sapiens, UniProt P11388); test: kDNA decatenation assay; type: biochemical; conditions: for TOPOIIα enzymatic inhibition (in words): DHM: even at >200 μM
T2 construct: purchased Inspiralis

[4] = tested on: Doxorubicin treated human iPSC-derived cardiomyocytes; test: iPSC-CM protection of MYR analogs against doxorubicin; type: cell-based
[5] = tested on: TOPOII enzymes (TOPOIIα and TOPOIIβ); test: kDNA decatenation assay, TOPOIIα and TOPOIIβ jointly; type: biochemical; conditions: discussion of Table 1
Experimental: 200 ng of kinetoplast DNA (kDNA) was incubated with one enzymatic unit of TOPOIIα or TOPOIIβ enzyme (Inspiralis) and with various concentrations of MYR or DEX at 37° C. for 30 min. The reaction was then separated on 1% agarose gel for visualization of decatenated DNA (bottom band). The efficiency of catalytic inhibition was quantified by measuring the relative intensity of the band.

[6] = tested on: induced pluripotent stem cell-derived cardiomyocytes; test: Acute toxicity on electrophysiology (MEA beat period, field potential duration); type: cell-based; conditions: for acute drug toxicity (beating): higher concentrations; for beat period or field potential duration, as compared to control samples: lower drug concentration, at least 20 minutes
Experimental: Samples were either mock-treated with 0.1% DMSO, or treated with increasing concentrations of the indicated drug for at least 20 minutes. Cardiomyocytes were treated with the hERG potassium channel blocker E4031 as a control. Following treatment, the beat period and field potential duration (FPD) were measured in each sample using the MEA.

[7] = tested on: A549 cells (lung cancer); test: Cell viability with doxorubicin (CellTiter-Glo); type: cell-based; conditions: co-treated with increasing concentrations of doxorubicin, 72 hours
Experimental: A549 cells (lung cancer) were cultured for 1 day before performing experiments. […] XLFit was used for curve fitting.

[8] = tested on: MDA-MB-231 breast cancer cells; test: Cell viability with doxorubicin (CellTiter-Glo); type: cell-based; conditions: co-treated with increasing concentrations of doxorubicin, 72 hours

T1 sequence (Q02880 whole entry): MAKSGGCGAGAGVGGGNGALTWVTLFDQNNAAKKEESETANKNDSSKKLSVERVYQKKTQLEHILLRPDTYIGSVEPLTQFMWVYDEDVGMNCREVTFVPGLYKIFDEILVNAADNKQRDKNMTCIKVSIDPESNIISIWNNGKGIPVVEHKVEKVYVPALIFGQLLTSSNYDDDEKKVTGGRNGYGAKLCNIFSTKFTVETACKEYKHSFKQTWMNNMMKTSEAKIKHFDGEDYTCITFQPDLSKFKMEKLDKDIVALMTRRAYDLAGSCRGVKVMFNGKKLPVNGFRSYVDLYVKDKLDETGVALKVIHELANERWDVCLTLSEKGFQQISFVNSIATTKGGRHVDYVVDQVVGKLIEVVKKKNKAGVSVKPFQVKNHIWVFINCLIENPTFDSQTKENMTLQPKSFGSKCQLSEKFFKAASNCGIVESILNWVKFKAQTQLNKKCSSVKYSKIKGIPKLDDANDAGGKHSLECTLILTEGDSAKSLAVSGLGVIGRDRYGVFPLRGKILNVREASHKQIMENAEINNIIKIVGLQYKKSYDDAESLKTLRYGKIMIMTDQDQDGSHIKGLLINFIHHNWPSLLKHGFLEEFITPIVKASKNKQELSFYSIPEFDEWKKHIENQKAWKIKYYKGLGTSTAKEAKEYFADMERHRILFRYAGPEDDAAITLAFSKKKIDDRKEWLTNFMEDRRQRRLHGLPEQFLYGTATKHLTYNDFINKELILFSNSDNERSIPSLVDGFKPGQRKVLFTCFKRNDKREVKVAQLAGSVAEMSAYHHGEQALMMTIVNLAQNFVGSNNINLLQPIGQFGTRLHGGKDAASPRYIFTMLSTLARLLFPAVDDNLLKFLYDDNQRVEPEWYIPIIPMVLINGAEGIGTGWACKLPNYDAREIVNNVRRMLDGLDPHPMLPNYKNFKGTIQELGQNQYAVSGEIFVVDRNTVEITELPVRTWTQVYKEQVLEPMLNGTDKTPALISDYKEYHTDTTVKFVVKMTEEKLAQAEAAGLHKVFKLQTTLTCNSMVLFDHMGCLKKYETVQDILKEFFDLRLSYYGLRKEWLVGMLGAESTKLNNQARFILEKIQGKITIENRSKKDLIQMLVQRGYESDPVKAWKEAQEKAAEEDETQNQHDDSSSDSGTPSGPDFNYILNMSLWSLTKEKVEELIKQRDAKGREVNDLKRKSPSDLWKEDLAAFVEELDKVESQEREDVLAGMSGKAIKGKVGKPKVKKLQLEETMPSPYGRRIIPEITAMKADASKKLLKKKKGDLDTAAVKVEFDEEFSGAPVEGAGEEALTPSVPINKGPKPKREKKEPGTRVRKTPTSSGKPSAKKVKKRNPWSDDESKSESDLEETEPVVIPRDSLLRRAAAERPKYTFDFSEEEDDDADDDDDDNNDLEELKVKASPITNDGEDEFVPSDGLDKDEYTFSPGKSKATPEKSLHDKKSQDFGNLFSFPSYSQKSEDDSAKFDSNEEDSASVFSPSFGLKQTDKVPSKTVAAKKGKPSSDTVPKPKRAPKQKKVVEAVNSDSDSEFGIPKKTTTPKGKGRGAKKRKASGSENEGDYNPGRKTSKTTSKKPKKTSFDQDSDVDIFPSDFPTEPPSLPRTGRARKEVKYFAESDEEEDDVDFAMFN
T2 sequence (P11388 whole entry): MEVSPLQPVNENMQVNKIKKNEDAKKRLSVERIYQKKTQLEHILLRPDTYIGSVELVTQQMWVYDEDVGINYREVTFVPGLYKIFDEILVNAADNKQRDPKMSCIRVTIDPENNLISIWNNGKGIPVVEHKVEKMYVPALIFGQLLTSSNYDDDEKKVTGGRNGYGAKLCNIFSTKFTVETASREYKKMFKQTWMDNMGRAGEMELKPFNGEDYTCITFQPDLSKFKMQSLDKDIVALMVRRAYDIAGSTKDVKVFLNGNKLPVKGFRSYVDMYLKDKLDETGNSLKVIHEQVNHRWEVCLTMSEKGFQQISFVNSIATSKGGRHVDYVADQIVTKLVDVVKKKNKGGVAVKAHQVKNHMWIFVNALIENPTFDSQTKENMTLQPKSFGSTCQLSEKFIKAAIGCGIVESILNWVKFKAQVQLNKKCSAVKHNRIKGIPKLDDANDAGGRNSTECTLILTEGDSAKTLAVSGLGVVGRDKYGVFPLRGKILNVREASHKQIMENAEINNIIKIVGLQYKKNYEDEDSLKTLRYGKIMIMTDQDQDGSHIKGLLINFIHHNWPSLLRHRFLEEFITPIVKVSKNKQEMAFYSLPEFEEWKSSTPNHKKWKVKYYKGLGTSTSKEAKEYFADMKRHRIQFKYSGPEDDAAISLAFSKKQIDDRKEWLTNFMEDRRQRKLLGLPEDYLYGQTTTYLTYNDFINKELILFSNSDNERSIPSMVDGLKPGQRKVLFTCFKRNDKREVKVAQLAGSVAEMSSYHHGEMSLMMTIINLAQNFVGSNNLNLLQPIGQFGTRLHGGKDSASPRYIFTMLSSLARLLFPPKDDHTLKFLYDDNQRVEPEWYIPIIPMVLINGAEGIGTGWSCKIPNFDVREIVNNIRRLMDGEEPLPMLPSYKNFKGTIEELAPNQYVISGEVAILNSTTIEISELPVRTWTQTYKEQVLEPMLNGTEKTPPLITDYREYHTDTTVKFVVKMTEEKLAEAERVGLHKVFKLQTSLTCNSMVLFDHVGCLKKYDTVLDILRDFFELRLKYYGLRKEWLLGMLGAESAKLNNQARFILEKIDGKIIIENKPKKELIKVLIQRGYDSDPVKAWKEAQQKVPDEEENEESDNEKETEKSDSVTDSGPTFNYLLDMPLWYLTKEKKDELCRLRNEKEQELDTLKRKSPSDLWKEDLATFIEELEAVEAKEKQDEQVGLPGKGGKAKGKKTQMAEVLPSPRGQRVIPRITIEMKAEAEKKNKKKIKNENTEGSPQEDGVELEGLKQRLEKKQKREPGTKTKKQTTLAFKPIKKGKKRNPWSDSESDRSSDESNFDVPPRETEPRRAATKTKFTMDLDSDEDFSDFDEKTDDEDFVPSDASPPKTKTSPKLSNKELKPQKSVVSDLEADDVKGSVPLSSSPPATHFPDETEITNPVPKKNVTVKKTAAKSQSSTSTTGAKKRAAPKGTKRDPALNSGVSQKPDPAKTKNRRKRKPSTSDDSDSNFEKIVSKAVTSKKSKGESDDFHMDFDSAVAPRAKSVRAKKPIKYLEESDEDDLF

SMILES	TOPOIIβ Inhibition [1]	TOPOIIα Inhibition [3]	cardioprotection (in words) ([4]; discussion of Table 1)	TOPOII (TOPOIIα and TOPOIIβ) inhibition (in words) [5]	further results
O=c1cc(-c2cc(O)c(O)c(O)c2)oc2ccccc12 [Compound 8, 3′,4′,5′-trihydroxyflavone]	−	−			Toxicity [2]: −
O=c1cc(-c2ccc(O)c(O)c2)oc2cc(O)ccc12 [Compound 11, 7,3′,4′-trihydroxyflavone]	−	−			
COc1c(O)cc(-c2oc3cc(O)cc(O)c3c(=O)c2O)cc1O [4′-O-methylmyricetin]			conferred cardioprotection	without TOPOII inhibition	
O=C1c2c(O)cc(O)cc2O[C@H](c2cc(O)c(O)c(O)c2)[C@H]1O [dihydromyricetin]					TOPOIIβ enzymatic inhibition (in words) [1]: did not inhibit; TOPOIIα enzymatic inhibition (in words) [3]: did not inhibit
O=c1cc(-c2cc(O)c(O)c(O)c2)oc2cc(O)ccc12 [7,3′,4′,5′-tetrahydroxyflavone]			displayed cardioprotection	did not inhibit TOPOII enzymes	
O=c1ccoc2cc(O)ccc12 [Compound 7-hydroxy-4-chromone, 7-hydroxy-4-chromone]			no positive effect in cardiac protection	Nor did either compound confer TOPOIIβ or a inhibition	cytotoxicity / toxic effects to cardiomyocytes (in words) [2]: high level of cytotoxicity at 100 μM
O=c1c(O)c(-c2ccc(O)c(O)c2)oc2ccccc12 [Compound 12, 3,3′,4′-trihydroxyflavone]	−	−			
O=c1cc(-c2ccc(O)cc2)oc2ccccc12 [Compound 17, 4′-hydroxyflavone]					Toxicity [2]: −; Emax ([4]; Homo sapiens, iPSC-CM, initial screen at 10 μM or 100 μM, read-out: iPSC-CM protection Max Effect (%)): < 30%
COc1cc(-c2oc3cc(O)cc(O)c3c(=O)c2O)cc(OC)c1O [3′,5′-O-dimethylmyricetin]			neither cardioprotection nor TOPOIIα and TOPOIIβ inhibition	neither cardioprotection nor TOPOIIα and TOPOIIβ inhibition	
O=C1C[C@@H](c2ccc(O)cc2)Oc2cc(O)cc(O)c21 [naringenin]					acute drug toxicity (beating) [6]: beating cessation; beat period or field potential duration, as compared to control samples [6]: no appreciable difference
COc1cc(-c2oc3cc(O)ccc3c(=O)c2O)cc(OC)c1OC [3′,4′,5′-O-trimethylrobinetin]			entirely failed to display cardioprotection or TOPOII inhibition	entirely failed to display cardioprotection or TOPOII inhibition	
O=c1c(O)c(-c2ccc(O)cc2)oc2cc(O)ccc12 [Compound 10, 3,7,4′-trihydroxyflavone]	−	−			cytotoxicity / toxic effects to cardiomyocytes (in words) [2]: exhibited toxic effects at concentrations below 100 μM
O=c1ccoc2ccccc12 [chromone]			no positive effect in cardiac protection	Nor did either compound confer TOPOIIβ or a inhibition	
O=c1cc(-c2cc(O)c(O)c(O)c2)oc2cc(O)cc(O)c12 [Compound 3, 5,7,3′,4′,5′-pentahydroxyflavone]			displayed cardioprotection	TOPOII inhibition	cytotoxicity / toxic effects to cardiomyocytes (in words) ([2]; listed as tricetin): exhibits some toxic effects at concentrations less than 100 μM; also recorded: low level of cytotoxicity at 100 μM
O=c1c(O)c(-c2ccccc2)oc2cc(O)cc(O)c12 [3,5,7-trihydroxyflavone]			neither cardioprotection nor TOPOII inhibition	neither cardioprotection nor TOPOII inhibition	cytotoxicity / toxic effects to cardiomyocytes (in words) [2]: generalized cytotoxicity
O=c1c(O)c(-c2ccc(O)c(O)c2)oc2cc(O)cc(O)c12 [Compound 4, 3,5,7,3′,4′-pentahydroxyflavone]			conferred cardioprotection	exhibited TOPOII inhibition	cytotoxicity / toxic effects to cardiomyocytes (in words) [2]: high level of general cytoxicity
CC(=O)N[C@@H](CS)C(=O)O [N-acetyl cysteine]					percentage of cell death vs doxorubicin in the absence of a protective agent [7]: no significant difference; percentage of cell death vs doxorubicin in the absence of a protective agent [8]: no significant difference; beat period or field potential duration, as compared to control samples [6]: no appreciable difference
O=c1ccoc2ccccc12 [Compound 29, chromone]					Toxicity [2]: −
COc1ccc2c(=O)c(OC)c(-c3cc(OC)c(OC)c(OC)c3)oc2c1 [3,7,3′,4′,5′-O-pentamethylrobinetin]			entirely failed to display cardioprotection or TOPOII inhibition	entirely failed to display cardioprotection or TOPOII inhibition	
O=c1ccoc2cc(O)ccc12 [Compound 38, 7-hydroxy-4-chromone]	−	−			
O=c1c(O)c(-c2cc(O)c(O)c(O)c2)oc2cc(O)ccc12 [Compound 2, 3,7,3′,4′,5′-pentahydroxyflavone]					TOPOIIβ enzymatic inhibition (in words) [1]: high level of inhibition; Toxicity [2]: −; TOPOIIα enzymatic inhibition (in words) [3]: high level of inhibition
COc1cc(-c2oc3cc(O)cc(O)c3c(=O)c2O)cc(OC)c1OC [3′,4′,5′-O-trimethylmyricetin]			entirely failed to display cardioprotection or TOPOII inhibition	entirely failed to display cardioprotection or TOPOII inhibition	
COc1ccc2c(=O)c(OC)c(-c3cc(OC)c(OC)c(OC)c3)oc2c1 [Compound 37, 3,7,3′,4′,5′-O-pentamethylrobinetin]	−	−			
COc1ccc2c(=O)c(O)c(-c3cc(OC)c(OC)c(OC)c3)oc2c1 [7,3′,4′,5′-O-tetramethylrobinetin]			entirely failed to display cardioprotection or TOPOII inhibition	entirely failed to display cardioprotection or TOPOII inhibition	
C[C@H](CCC(=O)O)[C@H]1CC[C@H]2[C@@H]3[C@H](O)C[C@@H]4C[C@H](O)CC[C@]4(C)[C@H]3CC[C@]12C [chenodeoxycholic acid]					acute drug toxicity (beating) [6]: beating cessation; beat period or field potential duration, as compared to control samples [6]: no appreciable difference
COc1ccc2c(=O)c(O)c(-c3cc(OC)c(OC)c(OC)c3)oc2c1 [Compound 36, 7,3′,4′,5′-O-tetramethylrobinetin]	−	−			
COc1cc(-c2oc3cc(O)ccc3c(=O)c2O)cc(OC)c1OC [Compound 35, 3′,4′,5′-O-trimethylrobinetin]	−	−			
COc1cc(-c2oc3cc(O)cc(O)c3c(=O)c2O)cc(O)c1O [3′-O-methylmyricetin]			conferred cardioprotection	failed to inhibit TOPOII enzymes	cytotoxicity / toxic effects to cardiomyocytes (in words) [2]: without showing generalized cytotoxicity; EC50 ([4]; Homo sapiens, Cardiomyocyte, discussion of Table 1, read-out: EC50 / potency for cardioprotection): ~59 µM
CC(=O)N(O)CCCCCNC(=O)CCC(=O)N(O)CCCCCNC(=O)CCC(=O)N(O)CCCCCN [deferoxamine]					beat period or field potential duration, as compared to control samples [6]: no appreciable difference
O=C1c2ccc(O)cc2OC(c2cc(O)c(O)c(O)c2)C1O (stereo in doubt) [Compound 30, dihydrorobinetin]	−	−			TOPOIIβ enzymatic inhibition (in words) [1]: no inhibitory activity; TOPOIIα enzymatic inhibition (in words) [3]: no inhibitory activity

More lines, main results first:

TOPOIIβ Inhibition [1]	TOPOIIα Inhibition [3]	SMILES	cardioprotection (in words) ([4]; discussion of Table 1)	TOPOII (TOPOIIα and TOPOIIβ) inhibition (in words) [5]	further results
−	−	O=c1cc(-c2cc(O)c(O)c(O)c2)oc2cc(O)ccc12 [Compound 6, 7,3′,4′,5′-tetrahydroxyflavone]			Toxicity [2]: −
−	−	COc1c(O)cc(-c2oc3cc(O)cc(O)c3c(=O)c2O)cc1O [Compound 32, 4′-O-methylmyricetin]			
−	−	COc1cc(-c2oc3cc(O)cc(O)c3c(=O)c2O)cc(O)c1O [Compound 31, 3′-O-methylmyricetin]			
−	−	COc1cc(-c2oc3cc(O)cc(O)c3c(=O)c2O)cc(OC)c1O [Compound 33, 3′,5′-O-dimethylmyricetin]			
−	−	COc1cc(-c2oc3cc(O)cc(O)c3c(=O)c2O)cc(OC)c1OC [Compound 34, 3′,4′,5′-O-trimethylmyricetin]			
−	−	O=c1cc(-c2ccc(O)c(O)c2)oc2cc(O)cc(O)c12 [Compound 9, 5,7,3′,4′-tetrahydroxyflavone]			
